The text below walks through data of US5051403A (priority 1989, dated 1991).

Several values for one entry are separate records, joined by “and”; a condition that tells them apart may be missing. Equal entries are not always repeated. Bridge positions count the residues as written; N and C are the ends. Square brackets hold non-standard residues; d marks the D form. Ends that are not written are not given here. Peptide text beside a SMILES is read from it. * marks the point of attachment. Hyp = O=C(O)[C@@H]1C[C@@H](O)CN1; Acm = CC(=O)NC*

Sequence of OCT binding sites, elasmobranch electric organ synaptosomes (P56698 whole entry, looked up): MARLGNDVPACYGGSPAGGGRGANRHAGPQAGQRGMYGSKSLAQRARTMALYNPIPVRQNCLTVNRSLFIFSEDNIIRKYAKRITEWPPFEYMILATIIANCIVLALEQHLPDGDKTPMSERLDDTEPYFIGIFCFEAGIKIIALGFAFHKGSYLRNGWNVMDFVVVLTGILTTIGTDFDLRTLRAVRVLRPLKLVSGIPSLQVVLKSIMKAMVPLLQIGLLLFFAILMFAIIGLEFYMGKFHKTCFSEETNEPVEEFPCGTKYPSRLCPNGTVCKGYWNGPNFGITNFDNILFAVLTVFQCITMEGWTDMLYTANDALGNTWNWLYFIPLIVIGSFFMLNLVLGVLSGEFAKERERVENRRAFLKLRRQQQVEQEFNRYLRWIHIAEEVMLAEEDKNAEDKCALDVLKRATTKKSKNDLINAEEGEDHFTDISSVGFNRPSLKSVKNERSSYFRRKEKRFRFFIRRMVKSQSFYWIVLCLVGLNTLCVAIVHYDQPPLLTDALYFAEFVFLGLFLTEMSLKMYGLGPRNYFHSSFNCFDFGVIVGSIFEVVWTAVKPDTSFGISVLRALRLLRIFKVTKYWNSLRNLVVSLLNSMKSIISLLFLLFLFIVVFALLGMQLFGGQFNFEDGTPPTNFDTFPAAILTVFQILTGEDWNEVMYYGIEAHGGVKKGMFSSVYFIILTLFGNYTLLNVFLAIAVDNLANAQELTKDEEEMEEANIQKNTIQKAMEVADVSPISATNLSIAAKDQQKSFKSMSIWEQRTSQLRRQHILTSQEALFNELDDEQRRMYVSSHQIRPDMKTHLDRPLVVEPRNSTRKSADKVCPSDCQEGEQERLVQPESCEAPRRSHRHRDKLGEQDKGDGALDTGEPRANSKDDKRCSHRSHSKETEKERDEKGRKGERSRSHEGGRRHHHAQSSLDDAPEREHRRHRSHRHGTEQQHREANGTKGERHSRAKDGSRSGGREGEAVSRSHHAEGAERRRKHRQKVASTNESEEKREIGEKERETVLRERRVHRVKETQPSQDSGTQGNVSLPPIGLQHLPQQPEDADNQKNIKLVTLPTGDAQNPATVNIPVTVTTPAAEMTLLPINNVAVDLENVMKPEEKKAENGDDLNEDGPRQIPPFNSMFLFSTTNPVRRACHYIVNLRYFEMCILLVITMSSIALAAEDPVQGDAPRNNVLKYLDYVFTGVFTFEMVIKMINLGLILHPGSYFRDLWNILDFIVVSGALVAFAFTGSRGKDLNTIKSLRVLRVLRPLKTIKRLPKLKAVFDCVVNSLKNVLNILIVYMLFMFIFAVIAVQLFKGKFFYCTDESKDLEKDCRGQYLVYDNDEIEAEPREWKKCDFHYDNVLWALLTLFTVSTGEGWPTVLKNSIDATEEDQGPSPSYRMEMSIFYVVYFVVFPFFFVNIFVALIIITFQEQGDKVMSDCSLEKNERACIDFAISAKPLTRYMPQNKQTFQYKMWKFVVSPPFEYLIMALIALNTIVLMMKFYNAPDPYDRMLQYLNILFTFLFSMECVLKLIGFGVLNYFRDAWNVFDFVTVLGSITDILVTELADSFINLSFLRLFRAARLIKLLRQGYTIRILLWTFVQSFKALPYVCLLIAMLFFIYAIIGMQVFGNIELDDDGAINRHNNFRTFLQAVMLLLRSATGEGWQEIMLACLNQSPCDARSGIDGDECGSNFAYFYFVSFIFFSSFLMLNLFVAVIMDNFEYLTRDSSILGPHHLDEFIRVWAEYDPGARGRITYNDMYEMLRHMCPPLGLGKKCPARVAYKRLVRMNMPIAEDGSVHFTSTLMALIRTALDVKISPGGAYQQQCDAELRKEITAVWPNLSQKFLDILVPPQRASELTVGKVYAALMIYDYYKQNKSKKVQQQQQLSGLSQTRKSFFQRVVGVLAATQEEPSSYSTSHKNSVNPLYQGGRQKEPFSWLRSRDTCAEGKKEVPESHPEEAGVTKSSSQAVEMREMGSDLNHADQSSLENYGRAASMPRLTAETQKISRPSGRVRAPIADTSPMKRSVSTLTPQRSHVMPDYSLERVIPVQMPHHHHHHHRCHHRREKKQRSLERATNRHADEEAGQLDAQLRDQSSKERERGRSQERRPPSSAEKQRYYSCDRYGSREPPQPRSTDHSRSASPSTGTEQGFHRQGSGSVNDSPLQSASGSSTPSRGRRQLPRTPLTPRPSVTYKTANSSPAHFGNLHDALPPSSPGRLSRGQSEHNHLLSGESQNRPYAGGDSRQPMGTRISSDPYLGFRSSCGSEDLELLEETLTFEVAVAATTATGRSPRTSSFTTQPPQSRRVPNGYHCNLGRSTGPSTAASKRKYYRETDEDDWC

This experiment addresses OCT binding sites, elasmobranch electric organ synaptosomes (Diplobatis ommata, UniProt P56698). The experiment in a line: biochemical. The note with it: pKi. Also noted: species or system Ommata dyscopyge (marine electric ray).
What is called Ki is the equilibrium dissociation constant of an inhibitor or competing ligand from its target. Lower therefore signals higher affinity. `C[C@@H]1NC(=O)[C@H](CO)NC(=O)[C@H](CO)NC(=O)CNC(=O)[C@@H]2C[C@@H](O)CN2C(=O)[C@H](CO)NC(=O)[C@H](CCCCN)NC(=O)[C@@H](N)CSSC[C@@H](C(N)=O)NC(=O)[C@H](C)NC(=O)[C@H](CC(N)=O)NC(=O)[C@H](Cc2ccc(O)cc2)NC(=O)[C@H](CO)NC(=O)[C@H]([C@@H](C)O)NC(=O)[C@@H]2C[C@@H](O)CN2C(=O)[C@H](CO)NC1=O` [GVIA 177] (H-CKS[Hyp]GSSAS[Hyp]TSYNAC-NH2; disulfide 1-16) registered a Ki greater than 1000 µM.

`C[C@@H]1NC(=O)[C@H](C)NC(=O)[C@H](CO)NC(=O)[C@H](CO)NC(=O)CNC(=O)[C@@H]2C[C@@H](O)CN2C(=O)[C@H](CO)NC(=O)[C@H](CCCCN)NC(=O)[C@@H](N)CSSC[C@@H](C(=O)N[C@@H](Cc2ccc(O)cc2)C(N)=O)NC(=O)[C@H](CCCNC(=N)N)NC(=O)[C@H](CCCCN)NC(=O)[C@H]([C@@H](C)O)NC(=O)[C@H](Cc2ccc(O)cc2)NC(=O)[C@@H]2C[C@@H](O)CN2C(=O)[C@H](CC(N)=O)NC1=O` [GVIA 180] (H-CKS[Hyp]GSSAAN[Hyp]YTKRCY-NH2; disulfide 1-16): the inhibition constant Ki is 123 µM. The result for `CC(=O)NCSC[C@@H]1NC(=O)[C@H](CO)NC(=O)CNC(=O)[C@H]([C@@H](C)O)NC(=O)[C@H](CSCNC(C)=O)NC(=O)[C@@H](N)CSSC[C@@H](C(N)=O)NC(=O)[C@H](CCCCN)NC(=O)CNC(=O)[C@H](CO)NC(=O)[C@H](CCCNC(=N)N)NC1=O` [MVIIA 160] reads 120 µM; that for `CSCC[C@@H]1NC(=O)[C@H](CC(C)C)NC(=O)[C@H](CCCNC(=N)N)NC(=O)[C@H](CO)NC(=O)[C@@H](N)CSSC[C@@H](C(N)=O)NC(=O)[C@H](CO)NC(=O)CNC(=O)[C@H]([C@@H](C)O)NC(=O)[C@H](CSCNC(C)=O)NC(=O)[C@H](CSCNC(C)=O)NC(=O)[C@H](CC(=O)O)NC(=O)[C@H](Cc2ccc(O)cc2)NC1=O` [MVIIA 161] (H-CSRLMYDC(Acm)C(Acm)TGSC-NH2; disulfide 1-13), greater than 1000 µM. As to `CC(=O)NCSC[C@@H]1NC(=O)[C@H](CCCCN)NC(=O)[C@H](C)NC(=O)CNC(=O)[C@H](CCCCN)NC(=O)CNC(=O)[C@H](CCCCN)NC(=O)[C@@H](N)CSSC[C@@H](C(N)=O)NC(=O)[C@H](CCCCN)NC(=O)CNC(=O)[C@H](CO)NC(=O)[C@H](CCCNC(=N)N)NC(=O)[C@H](CSCNC(C)=O)NC1=O` [MVIIA 162] (H-CKGKGAKC(Acm)C(Acm)RSGKC-NH2; disulfide 1-14), the inhibition constant (Ki) was < 1 µM and 0.17 µM.

In turn, `CSCC[C@@H]1NC(=O)[C@H](CC(C)C)NC(=O)[C@H](CCCNC(=N)N)NC(=O)[C@H](CO)NC(=O)[C@H](CSCNC(C)=O)NC(=O)[C@H](CCCCN)NC(=O)[C@H](C)NC(=O)CNC(=O)[C@H](CCCCN)NC(=O)CNC(=O)[C@H](CCCCN)NC(=O)[C@@H](N)CSSC[C@@H](C(N)=O)NC(=O)[C@H](CSCNC(C)=O)NC(=O)[C@H](CC(=O)O)NC(=O)[C@H](Cc2ccc(O)cc2)NC1=O` [MVIIA 163] had an inhibitory constant (Ki) of 219 µM. `C[C@@H]1NC(=O)CNC(=O)[C@H](CCCCN)NC(=O)CNC(=O)[C@H](CCCCN)NC(=O)[C@@H](N)CSSC[C@@H](C(=O)N[C@@H](CO)C(=O)N[C@@H](CCCNC(=N)N)C(N)=O)NC(=O)[C@H](CCCCN)NC1=O` [MVIIA 170]: the Ki was < 1 µM and 0.282 µM. In turn, `CSCC[C@@H]1NC(=O)[C@H](CC(C)C)NC(=O)[C@H](CCCNC(=N)N)NC(=O)[C@H](CO)NC(=O)[C@H](C)NC(=O)[C@H](CCCCN)NC(=O)[C@H](C)NC(=O)CNC(=O)[C@H](CCCCN)NC(=O)CNC(=O)[C@H](CCCCN)NC(=O)[C@@H](N)CSSC[C@@H](C(N)=O)NC(=O)[C@H](C)NC(=O)[C@H](CC(=O)O)NC(=O)[C@H](Cc2ccc(O)cc2)NC1=O` [MVIIA 171] (H-CKGKGAKASRLMYDAC-NH2; disulfide 1-16) showed a Ki of 4.68 µM. This counts as single-digit micromolar. The result for `CSCC[C@@H]1NC(=O)[C@H](CC(C)C)NC(=O)[C@H](CCCNC(=N)N)NC(=O)[C@H](CO)NC(=O)[C@@H]2CSSC[C@H](NC(=O)[C@H](CC(=O)O)NC(=O)[C@H](Cc3ccc(O)cc3)NC1=O)C(=O)N[C@H](C(N)=O)CSSC[C@H](N)C(=O)N[C@@H](CCCCN)C(=O)NCC(=O)N[C@@H](CCCCN)C(=O)NCC(=O)N[C@@H](C)C(=O)N[C@@H](CCCCN)C(=O)N2` [MVIIA 172] reads 20.9 µM; that for `C[C@@H]1NC(=O)CNC(=O)[C@H](CCCCN)NC(=O)CNC(=O)[C@H](CCCCN)NC(=O)[C@@H](N)CSSC[C@@H](C(N)=O)NC(=O)[C@H](CCCCN)NC(=O)CNC(=O)[C@H](CO)NC(=O)[C@H](CCCNC(=N)N)NC(=O)[C@H](C)NC(=O)[C@H](C)NC(=O)[C@H](CCCCN)NC1=O` [MVIIA 175] (H-CKGKGAKAARSGKC-NH2; disulfide 1-14), 3.63 µM. The result for `C[C@@H]1NC(=O)[C@H](C)NC(=O)[C@H](CCCCN)NC(=O)[C@H](CO)NC(=O)CNC(=O)[C@H](CCCCN)NC(=O)[C@H](CO)NC(=O)[C@H](CCCCN)NC(=O)[C@@H](N)CSSC[C@@H](C(N)=O)NC(=O)[C@H](CCCCN)NC(=O)CNC(=O)[C@H](CO)NC(=O)[C@H](CCCNC(=N)N)NC1=O` [MVIIA 176] (H-CKSKGSKAARSGKC-NH2; disulfide 1-14) reads 1.82 µM. As for AKGKGAKASR-NH2 [MVIIA 174], the figure is < 1 µM and 0.525 µM.
